ChEMBL document CHEMBL4118068 (Eur J Med Chem, 2017)

What was measured:
[1] = target: Muscarinic acetylcholine receptor M3 (Homo sapiens, UniProt P20309); assay: Displacement of [3H]NMS from recombinant human muscarinic M3 receptor expressed in CHOK1 cell membranes after 120 mins by scintillation counting method
[2] = target: T1, Muscarinic acetylcholine receptor M1 (Homo sapiens, UniProt P11229); assay: Displacement of [3H]NMS from recombinant human muscarinic M1 receptor expressed in CHOK1 cell membranes after 120 mins by scintillation counting method
T1 sequence (P11229 whole entry): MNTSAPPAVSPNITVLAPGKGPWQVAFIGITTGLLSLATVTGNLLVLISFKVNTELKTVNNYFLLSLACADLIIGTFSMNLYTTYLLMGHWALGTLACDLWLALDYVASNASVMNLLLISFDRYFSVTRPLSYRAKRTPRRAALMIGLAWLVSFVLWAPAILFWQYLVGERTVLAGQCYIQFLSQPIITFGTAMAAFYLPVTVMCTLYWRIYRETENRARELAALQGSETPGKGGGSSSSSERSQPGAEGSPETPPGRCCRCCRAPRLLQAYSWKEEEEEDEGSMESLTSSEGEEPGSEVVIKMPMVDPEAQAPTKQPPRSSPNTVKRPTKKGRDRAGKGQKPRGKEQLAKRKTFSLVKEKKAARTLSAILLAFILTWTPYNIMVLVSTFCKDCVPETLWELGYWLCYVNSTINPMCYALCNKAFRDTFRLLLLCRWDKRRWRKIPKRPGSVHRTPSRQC

[3] = target: T2, Muscarinic acetylcholine receptor M5 (Homo sapiens, UniProt P08912); assay: Displacement of [3H]NMS from recombinant human muscarinic M5 receptor expressed in CHOK1 cell membranes after 120 mins by scintillation counting method
T2 sequence (P08912 whole entry): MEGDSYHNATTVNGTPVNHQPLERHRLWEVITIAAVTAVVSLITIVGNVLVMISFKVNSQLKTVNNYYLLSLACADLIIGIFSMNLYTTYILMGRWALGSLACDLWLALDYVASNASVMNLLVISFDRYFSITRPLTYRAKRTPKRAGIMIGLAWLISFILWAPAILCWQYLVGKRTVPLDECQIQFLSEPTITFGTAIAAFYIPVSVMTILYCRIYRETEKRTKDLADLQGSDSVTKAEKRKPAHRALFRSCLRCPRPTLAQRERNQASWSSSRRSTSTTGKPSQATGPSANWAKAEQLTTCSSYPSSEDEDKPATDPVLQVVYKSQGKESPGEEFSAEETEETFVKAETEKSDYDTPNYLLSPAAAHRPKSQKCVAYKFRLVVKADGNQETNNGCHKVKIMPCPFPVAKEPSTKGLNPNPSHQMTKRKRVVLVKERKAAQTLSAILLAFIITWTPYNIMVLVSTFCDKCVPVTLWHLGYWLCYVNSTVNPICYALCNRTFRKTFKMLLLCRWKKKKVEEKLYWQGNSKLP

[4] = target: T3, Muscarinic acetylcholine receptor M4 (Homo sapiens, UniProt P08173); assay: Displacement of [3H]NMS from recombinant human muscarinic M4 receptor expressed in CHOK1 cell membranes after 120 mins by scintillation counting method
T3 sequence (P08173 whole entry): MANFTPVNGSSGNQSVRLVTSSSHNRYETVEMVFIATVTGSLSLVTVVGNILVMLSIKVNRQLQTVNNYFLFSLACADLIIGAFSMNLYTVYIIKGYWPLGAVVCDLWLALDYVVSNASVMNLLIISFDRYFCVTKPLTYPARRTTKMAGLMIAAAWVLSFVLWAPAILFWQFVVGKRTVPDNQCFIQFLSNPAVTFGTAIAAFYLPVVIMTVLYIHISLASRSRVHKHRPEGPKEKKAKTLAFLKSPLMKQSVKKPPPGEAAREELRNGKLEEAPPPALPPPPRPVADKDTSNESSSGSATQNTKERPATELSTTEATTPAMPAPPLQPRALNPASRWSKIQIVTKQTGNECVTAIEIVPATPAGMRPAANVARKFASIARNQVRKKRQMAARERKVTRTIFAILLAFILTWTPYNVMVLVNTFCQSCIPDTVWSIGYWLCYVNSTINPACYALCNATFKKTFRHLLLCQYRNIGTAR

[5] = target: T4, Muscarinic acetylcholine receptor M2 (Homo sapiens, UniProt P08172); assay: Displacement of [3H]NMS from recombinant human muscarinic M2 receptor expressed in CHOK1 cell membranes after 120 mins by scintillation counting method
T4 sequence (P08172 whole entry): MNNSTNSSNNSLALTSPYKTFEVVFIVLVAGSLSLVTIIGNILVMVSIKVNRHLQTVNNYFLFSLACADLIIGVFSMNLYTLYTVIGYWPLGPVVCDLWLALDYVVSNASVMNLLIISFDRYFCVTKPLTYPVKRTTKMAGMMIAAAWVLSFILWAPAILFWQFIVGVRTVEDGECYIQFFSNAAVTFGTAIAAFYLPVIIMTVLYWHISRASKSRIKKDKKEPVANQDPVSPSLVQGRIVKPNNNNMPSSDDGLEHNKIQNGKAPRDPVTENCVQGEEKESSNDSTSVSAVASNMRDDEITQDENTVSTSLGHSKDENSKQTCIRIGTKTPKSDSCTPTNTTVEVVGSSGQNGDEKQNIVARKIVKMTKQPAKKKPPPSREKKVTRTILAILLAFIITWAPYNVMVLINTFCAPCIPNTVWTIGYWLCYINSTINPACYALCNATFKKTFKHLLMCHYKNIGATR

Muscarinic acetylcholine receptor M3, sequence (P20309 whole entry): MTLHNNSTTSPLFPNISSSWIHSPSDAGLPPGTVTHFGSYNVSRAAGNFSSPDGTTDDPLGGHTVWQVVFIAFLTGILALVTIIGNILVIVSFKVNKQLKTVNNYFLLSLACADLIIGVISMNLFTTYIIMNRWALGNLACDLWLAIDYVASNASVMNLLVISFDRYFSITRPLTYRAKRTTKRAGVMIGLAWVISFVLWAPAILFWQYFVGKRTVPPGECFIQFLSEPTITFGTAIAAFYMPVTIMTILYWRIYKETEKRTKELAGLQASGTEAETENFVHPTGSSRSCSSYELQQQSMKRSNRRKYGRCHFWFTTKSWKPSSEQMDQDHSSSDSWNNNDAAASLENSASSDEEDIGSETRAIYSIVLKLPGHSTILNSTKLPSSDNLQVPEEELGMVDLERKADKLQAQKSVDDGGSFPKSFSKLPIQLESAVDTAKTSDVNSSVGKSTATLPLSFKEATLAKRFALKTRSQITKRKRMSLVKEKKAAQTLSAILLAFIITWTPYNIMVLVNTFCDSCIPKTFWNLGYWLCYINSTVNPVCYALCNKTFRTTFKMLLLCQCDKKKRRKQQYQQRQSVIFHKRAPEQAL

| Structure (SMILES) | Ki [1] [nM] | Ki [2] [nM] | Ki [3] [nM] | Ki [4] [nM] | Ki [5] [nM] |
| --- | --- | --- | --- | --- | --- |
| c1ccc(C2(c3ccccc3)COC[C@H](CO[C@H]3CN4CCC3CC4)O2)cc1 | 43.7 | 8.91 | 45.7 | 22.9 | 57.5 |
| c1ccc(C2(c3ccccc3)COC[C@@H](CO[C@@H]3CN4CCC3CC4)O2)cc1 | 105 | 55 | 112 | 100 | 61.7 |
| O=C(O[C@H]1CN2CCC1CC2)N1CCc2ccccc2[C@@H]1c1ccccc1 [SOLIFENACIN] | 13.2 | 51.3 | 43.7 | 129 | 120 |
| c1ccc(C2(c3ccccc3)COC[C@H](CO[C@@H]3CN4CCC3CC4)O2)cc1 | 20 | 4.57 | 19.1 | 11.5 | 33.1 |
| c1ccc(C2(c3ccccc3)COC[C@@H](CO[C@H]3CN4CCC3CC4)O2)cc1 | 617 | 162 | 631 | 437 | 355 |
